Consider 27 compounds from patent US20250197406A1, “INDAZOLES AS HEMATOPOIETIC PROGENITOR KINASE 1 (HPK1) INHIBITORS AND METHODS FOR USING SAME” (1ST Biotherapeutics, Inc., priority 2022, published 2025).

For this assay, the target named is recombinant human HPK1 (Homo sapiens (Human), UniProt Q92918). The assay is described as follows: HPK1 kinase assay (Promega ADP-Glo kinase assay). Type of assay: biochemical. The note with it: In vitro activity against HPK1, 5 ng HPK1, MBP substrate, ATP 25 μM, 30° C. 40 minutes. On the procedure: HPK1 kinase activity was measured by Promega's ADP-Glo™ kinase assay. In this assay, 5 ng of recombinant human HPK1 (signalchem) is incubated with 5 μL of compounds (0.5% DMSO), 5 μL of MBP (0.5 μg/μl) and 5 μL of ATP (25 μM) in buffer (40 mM Tris, 7.5; 20 mM MgCl2; 0.1 mg/ml BSA; 50 μM DTT.). The assay was started by incubating the reaction mixture in a 96-well plate at 30° C. for 40 minutes. After the incubation, 25 μL ADP-Glo reagent was added and the reaction was incubated at room temperature for 40-min to stop the reaction and degrade residual ATP. The ADP product was then converted to ATP by adding 50 μL per well of detection reagent. Luminescence was detected after 30-min room temperature incubation with the Molecular device I3X plate reader. The IC50 values were calculated from a series of percent inhibition values determined at a range of inhibitor concentration using software routines as implemented in the GraphPad Prism 7 software and SigmaPlot13.0.
Chain of recombinant human HPK1 (Q92918 whole entry): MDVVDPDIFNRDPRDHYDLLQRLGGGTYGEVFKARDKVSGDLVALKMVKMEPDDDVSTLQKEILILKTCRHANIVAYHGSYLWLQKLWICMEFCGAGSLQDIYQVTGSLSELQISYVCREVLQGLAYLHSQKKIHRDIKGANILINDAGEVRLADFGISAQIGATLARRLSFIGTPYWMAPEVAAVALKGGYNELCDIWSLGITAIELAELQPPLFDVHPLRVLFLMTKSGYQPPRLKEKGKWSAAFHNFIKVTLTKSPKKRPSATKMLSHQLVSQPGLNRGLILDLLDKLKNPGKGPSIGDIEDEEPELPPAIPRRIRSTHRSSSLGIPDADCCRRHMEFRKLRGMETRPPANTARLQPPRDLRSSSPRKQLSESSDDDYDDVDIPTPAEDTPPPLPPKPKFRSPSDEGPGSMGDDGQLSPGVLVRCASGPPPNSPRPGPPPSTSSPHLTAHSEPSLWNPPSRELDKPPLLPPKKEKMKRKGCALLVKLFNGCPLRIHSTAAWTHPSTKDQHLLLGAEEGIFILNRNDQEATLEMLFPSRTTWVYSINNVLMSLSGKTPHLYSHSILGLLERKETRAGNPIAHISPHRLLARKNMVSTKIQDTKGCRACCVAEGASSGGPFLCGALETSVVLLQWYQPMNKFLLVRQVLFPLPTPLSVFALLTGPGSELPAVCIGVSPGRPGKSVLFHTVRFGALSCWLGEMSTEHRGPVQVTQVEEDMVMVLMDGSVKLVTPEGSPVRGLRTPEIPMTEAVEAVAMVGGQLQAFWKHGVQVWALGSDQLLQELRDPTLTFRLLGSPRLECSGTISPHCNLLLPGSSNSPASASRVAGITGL
(In general: ADP-Glo turns the ADP formed in a reaction into a luminescent signal.)

A word on the IC50: it is the concentration at which inhibition is half-maximal. In the case of `CC(C)Nc1c(F)c(Cl)c(-c2cn3cc(NC(=O)CC4COC4)nc3cn2)c2cn[nH]c12` [Example 116, N-(6-(5-chloro-6-fluoro-7-(isopropylamino)-1H-indazol-4-yl)imidazo[1,2-a]pyrazin-2-yl)-2-(oxetan-3-yl)acetamide], the IC50 is less than 100 nM.
Take `CSCC(=O)Nc1cn2cc(-c3c(Cl)c(F)c(NC(C)C)c4[nH]ncc34)ncc2n1` [Example 100, N-(6-(5-chloro-6-fluoro-7-(isopropylamino)-1H-indazol-4-yl)imidazo[1,2-a]pyrazin-2-yl)-2-(methylthio)acetamide]: the IC50 is less than 100 nM.
On to `Cc1c(F)c(C(C)CN)c2[nH]ncc2c1-c1cn2cc(NC(=O)[C@@H]3C[C@@H]3F)nc2cn1` (stereo partly drawn) [Example 24, (1S,2S)-N-(6-(7-(1-aminopropan-2-yl)-6-fluoro-5-methyl-1H-indazol-4-yl)imidazo[1,2-a]pyrazin-2-yl)-2-fluorocyclopropane-1-carboxamide], for which the IC50 is less than 100 nM.
For the compound `Cc1c(F)c(C(C)CN(C)C)c2[nH]ncc2c1-c1cn2cc(NC(=O)[C@@H]3C[C@@H]3F)nc2cn1` (stereo partly drawn) [Example 13, (1S,2S)-N-(6-(7-(1-(dimethylamino)propan-2-yl)-6-fluoro-5-methyl-1H-indazol-4-yl)imidazo[1,2-a]pyrazin-2-yl)-2-fluorocyclopropane-1-carboxamide], the IC50 fell in the range of 101 to 500 nM.
Consider `CC(C)Nc1c(F)c(Cl)c(-c2cn3cc(N4CCOCC4)nc3cn2)c2cn[nH]c12` [Example 91, 5-chloro-6-fluoro-N-isopropyl-4-(2-morpholinoimidazo[1,2-a]pyrazin-6-yl)-1H-indazol-7-amine], for which the IC50 was in the range of 501 to 1000 nM.
With `CC(=O)Nc1cn2cc(-c3c(Cl)c(F)c(CN4CC(O)C4)c4[nH]ncc34)ncc2n1` [Example 150, N-(6-(5-chloro-6-fluoro-7-((3-hydroxyazetidin-1-yl)methyl)-1H-indazol-4-yl)imidazo[1,2-a]pyrazin-2-yl)acetamide] the figure was 501 to 1000 nM; with `Cc1c(F)c(C(NC(=O)C(F)(F)F)C2CC2)c2[nH]ncc2c1-c1cn2cc(NC(=O)[C@@H]3C[C@@H]3F)nc2cn1` (stereo partly drawn) [Example 107, (1S,2S)-N-(6-(7-(cyclopropyl(2,2,2-trifluoroacetamido)methyl)-6-fluoro-5-methyl-1H-indazol-4-yl)imidazo[1,2-a]pyrazin-2-yl)-2-fluorocyclopropane-1-carboxamide], less than 100 nM; with `CC(C)Nc1c(F)c(Cl)c(-c2cn3cc(NC(=O)CO)nc3cn2)c2cn[nH]c12` [Example 129, N-(6-(5-chloro-6-fluoro-7-(isopropylamino)-1H-indazol-4-yl)imidazo[1,2-a]pyrazin-2-yl)-2-hydroxyacetamide], less than 100 nM.
For `Cc1c(F)c(C(C)NC(=O)C2CC2)c2[nH]ncc2c1-c1cn2cc(NC(=O)[C@@H]3C[C@@H]3F)nc2cn1` (stereo partly drawn) [Example 69, (1S,2S)-N-(6-(7-(1-(cyclopropanecarboxamido)ethyl)-6-fluoro-5-methyl-1H-indazol-4-yl)imidazo[1,2-a]pyrazin-2-yl)-2-fluorocyclopropane-1-carboxamide], the IC50 is less than 100 nM.
As for `CC(C)Nc1c(F)c(Cl)c(-c2cn3cc(NC(=O)C4CCC4)nc3cn2)c2cn[nH]c12` [Example 60, N-(6-(5-chloro-6-fluoro-7-(isopropylamino)-1H-indazol-4-yl)imidazo[1,2-a]pyrazin-2-yl)cyclobutanecarboxamide], the IC50 is less than 100 nM.
With `COc1c(F)c(C(O)C2CC2)c2[nH]ncc2c1-c1cn2cc(NC(=O)[C@@H]3C[C@@H]3F)nc2cn1` (stereo partly drawn) [Example 127, (1S,2S)-N-(6-(7-(cyclopropyl(hydroxy)methyl)-6-fluoro-5-methoxy-1H-indazol-4-yl)imidazo[1,2-a]pyrazin-2-yl)-2-fluorocyclopropane-1-carboxamide], the IC50 is less than 100 nM.
As to `CC(C)Nc1c(F)c(Cl)c(-c2cn3cc(NC(=O)[C@@H]4C[C@@H]4C(=O)O)nc3cn2)c2cn[nH]c12` [Example 20, (1S,2R)-2-((6-(5-chloro-6-fluoro-7-(isopropylamino)-1H-indazol-4-yl)imidazo[1,2-a]pyrazin-2-yl)carbamoyl)cyclopropane-1-carboxylic acid], the 50% inhibitory concentration (IC50) is less than 100 nM.
For `COC(=O)Nc1cn2cc(-c3c(Cl)c(F)c(NC(C)C)c4[nH]ncc34)ncc2n1` [Example 113, methyl (6-(5-chloro-6-fluoro-7-(isopropylamino)-1H-indazol-4-yl)imidazo[1,2-a]pyrazin-2-yl)carbamate], the IC50 was less than 100 nM.
In the case of `O=C(NC(c1c(F)c(C(F)F)c(-c2cn3cc(NC(=O)[C@@H]4C[C@@H]4F)nc3cn2)c2cn[nH]c12)C1CC1)C1CC1` (stereo partly drawn) [Example 77, (1S,2S)-N-(6-(7-(cyclopropanecarboxamido(cyclopropyl)methyl)-5-(difluoromethyl)-6-fluoro-1H-indazol-4-yl)imidazo[1,2-a]pyrazin-2-yl)-2-fluorocyclopropane-1-carboxamide], the IC50 was less than 100 nM.
On to `CC(=O)NC(c1c(F)c(C)c(-c2cn3cc(NC(=O)[C@@H]4C[C@@H]4F)nc3cn2)c2cn[nH]c12)C1CC1` (stereo partly drawn) [Example 42, (1S,2S)-N-(6-(7-(acetamido(cyclopropyl)methyl)-6-fluoro-5-methyl-1H-indazol-4-yl)imidazo[1,2-a]pyrazin-2-yl)-2-fluorocyclopropane-1-carboxamide], for which the IC50 is less than 100 nM.
In the case of `COc1c(F)c(N(C)C)c2[nH]ncc2c1-c1cn2cc(NC(=O)[C@@H]3C[C@@H]3F)nc2cn1` [Example 136, (1S,2S)-N-(6-(7-(dimethylamino)-6-fluoro-5-methoxy-1H-indazol-4-yl)imidazo[1,2-a]pyrazin-2-yl)-2-fluorocyclopropane-1-carboxamide] it was less than 100 nM.
With `NC(c1c(F)c(C(F)F)c(-c2cn3cc(NC(=O)[C@@H]4C[C@@H]4F)nc3cn2)c2cn[nH]c12)C1CC1` (stereo partly drawn) [Example 41, (1S,2S)-N-(6-(7-(amino(cyclopropyl)methyl)-5-(difluoromethyl)-6-fluoro-1H-indazol-4-yl)imidazo[1,2-a]pyrazin-2-yl)-2-fluorocyclopropane-1-carboxamide], the IC50 is less than 100 nM.
In the case of `COc1c(F)c(NC(C)C)c2[nH]ncc2c1-c1cn2cc(NC(=O)C3CC3)nc2cn1` [Example 160, N-(6-(6-fluoro-7-(isopropylamino)-5-methoxy-1H-indazol-4-yl)imidazo[1,2-a]pyrazin-2-yl)cyclopropanecarboxamide] it was less than 100 nM; in that of `CCOC(C)c1c(F)c(C)c(-c2cn3cc(NC(=O)[C@@H]4C[C@@H]4F)nc3cn2)c2cn[nH]c12` (stereo partly drawn) [Example 3, (1S,2S)-N-(6-(7-(1-ethoxyethyl)-6-fluoro-5-methyl-1H-indazol-4-yl)imidazo[1,2-a]pyrazin-2-yl)-2-fluorocyclopropane-1-carboxamide], 101 to 500 nM; in that of `CC(C)Nc1c(F)c(Cl)c(-c2cn3cc(NC(=O)C4(N)CC4)nc3cn2)c2cn[nH]c12` [Example 78, 1-amino-N-(6-(5-chloro-6-fluoro-7-(isopropylamino)-1H-indazol-4-yl)imidazo[1,2-a]pyrazin-2-yl)cyclopropane-1-carboxamide], less than 100 nM.
For the compound `CNC(C)c1c(F)c(C)c(-c2cn3cc(NC(=O)[C@@H]4C[C@@H]4F)nc3cn2)c2cn[nH]c12` (stereo partly drawn) [Example 10, (1S,2S)-2-fluoro-N-(6-(6-fluoro-5-methyl-7-(1-(methylamino)ethyl)-1H-indazol-4-yl)imidazo[1,2-a]pyrazin-2-yl)cyclopropane-1-carboxamide], the IC50 was 101 to 500 nM.
Turning to `CC(=O)Nc1cn2cc(-c3c(Cl)c(F)c(OC4CN(C(C)=O)C4)c4[nH]ncc34)ncc2n1` [Example 145, N-(6-(7-((1-acetylazetidin-3-yl)oxy)-5-chloro-6-fluoro-1H-indazol-4-yl)imidazo[1,2-a]pyrazin-2-yl)acetamide], the IC50 is 501 to 1000 nM.
On to `CC(C)Nc1c(F)c(C(F)(F)F)c(-c2cn3cc(NC(=O)[C@@H]4C[C@@H]4CO)nc3cn2)c2cn[nH]c12` [Example 104, (1R,2S)-N-(6-(6-fluoro-7-(isopropylamino)-5-(trifluoromethyl)-1H-indazol-4-yl)imidazo[1,2-a]pyrazin-2-yl)-2-(hydroxymethyl)cyclopropane-1-carboxamide], for which the IC50 is less than 100 nM.
As for `CC(=O)NC(C)c1c(F)c(C)c(-c2cn3cc(NC(=O)[C@@H]4C[C@@H]4F)nc3cn2)c2cn[nH]c12` (stereo partly drawn) [Example 70, (1S,2S)-N-(6-(7-(1-acetamidoethyl)-6-fluoro-5-methyl-1H-indazol-4-yl)imidazo[1,2-a]pyrazin-2-yl)-2-fluorocyclopropane-1-carboxamide], the half-maximal inhibitory concentration (IC50) was less than 100 nM.
For the compound `CCN(CC)C(=O)[C@H]1C[C@H]1C(=O)Nc1cn2cc(-c3c(Cl)c(F)c(NC(C)C)c4[nH]ncc34)ncc2n1` [Example 26, (1R,2S)-N1-(6-(5-chloro-6-fluoro-7-(isopropylamino)-1H-indazol-4-yl)imidazo[1,2-a]pyrazin-2-yl)-N2,N2-diethylcyclopropane-1,2-dicarboxamide], the IC50 is less than 100 nM.
Consider `COCC(=O)Nc1cn2cc(-c3c(Cl)c(F)c(NC(C)C)c4[nH]ncc34)ncc2n1` [Example 109, N-(6-(5-chloro-6-fluoro-7-(isopropylamino)-1H-indazol-4-yl)imidazo[1,2-a]pyrazin-2-yl)-2-methoxyacetamide], for which the concentration for half-maximal inhibition (IC50) is less than 100 nM.
As for `CC(C)Nc1c(F)c(Cl)c(-c2cn3cc(NC(=O)N4CCOCC4)nc3cn2)c2cn[nH]c12` [Example 84, N-(6-(5-chloro-6-fluoro-7-(isopropylamino)-1H-indazol-4-yl)imidazo[1,2-a]pyrazin-2-yl)morpholine-4-carboxamide], the IC50 is less than 100 nM.
